Results taken from patent publication US20200270576A1, “Ex Vivo Maintenance and Expansion of Stem Cells” (priority 2017, published 2020).

What was measured:
Hsf1 = Hsf1 expression and localization by immunofluorescence in cultured HSCs; type: cell-based, mouse; details: 10 days culture; 17-AAG 5 nM, HSF1A 8 uM final concentration
Excerpt: FIG. 14 depicts representative immunofluorescence staining of HSCs cultured for 10 days in the presence or absence of 17-AAG or HSF1A. Addition of 17-AAG or HSF1A to culture medium increased Hsf1 accumulation in the nucleus of cultured HSCs. Hsf1-deficient HSCs and cells stained without primary antibody (Neg Con) are shown as controls.
Since Hsf1 promoted HSC maintenance and protein homeostasis in vitro (FIG. 13), we investigated whether increasing Hsf1 expression or activity would further enhance HSC maintenance. […] Hsf1 can become active as a transcription factor when it translocates to the nucleus. We thus tested whether inhibitors of HSP90 or TRiC would promote Hsf1 accumulation in the nucleus of cultured HSCs by culturing HSCs for 10 days in the presence or absence of 17-AAG (HSP90 inhibitor; 5 nM final concentration) or HSF1A (TRiC inhibitor; 8 uM final concentration), and assessed Hsf1 expression and localization by immunofluorescence.

HSCs [1] = experiment: TMI fluorescence (unfolded protein abundance) in cultured HSCs; type: cell-based, mouse; details: 18 hours in culture
Protocol: FIG. 15 depicts that addition of 17-AAG to culture medium reduced TMI fluorescence (unfolded protein abundance) within cultured HSCs (18 hour cultures shown).
Hsf1 promoted protein homeostasis maintenance in cultured HSCs (FIG. 13B), and 17-AAG promoted Hsf1 accumulation in cultured HSCs (FIG. 14). We thus investigated whether addition of 17-AAG to culture medium could promote protein homeostasis maintenance in HSCs. To test this, HSCs were cultured in the presence or absence (vehicle only; DMSO) of 17-AAG. After 18 hours in culture, we assessed protein homeostasis by quantifying unfolded protein abundance based on TMI fluorescence.

HSCs [2] = experiment: Competitive transplantation of HSCs cultured 10 days, with serial transplantation; type: cell-based, murine
Excerpt: FIG. 16A-B depict that HSC functionality is maintained and expanded in vitro by interventions that can induce/activate Hsf1. FIG. 16A depicts donor cell engraftment 16 weeks after transplantation of 10 HSCs cultured for 10 days in the presence or absence of an HSP90 inhibitor (17-AAG) or TRiC inhibitor (HSF1A) or from 10 freshly isolated HSCs. Cells were transplanted with 2×10^5 freshly isolated congenic bone marrow cells (n=3 independent experiments with 3-5 recipients/condition/experiment). […] Addition of either 17-AAG or HSF1A increased the reconstituting potential of cultured HSCs as compared to both control cultured and freshly isolated HSCs.
To test if HSCs depend on Hsf1 for their maintenance in vitro, we conditionally deleted Hsf1 from HSCs, cultured them for 10 days and assessed their long-term multilineage reconstituting activity in competitive transplantation assays. The assay for testing HSC function is to assess their capacity to give long-term (16+ week) multilineage (B cell, T cell and myeloid cell) reconstitution of the blood system of an irradiated transplant recipient. A competitive transplantation assay provides a quantitative readout of HSC regenerative activity.
Modest declines in proteostasis impair HSC maintenance in vivo. […] This raises the possibility that increasing Hsf1 activity could promote HSC maintenance in vitro by enhancing proteostasis capacity. To test if HSP90 inhibitors or TRiC inhibitors promote HSC maintenance in vitro, purified HSCs were sorted from young adult murine bone marrow (CD45.1^+) into 96-well plates (10/well) containing our HSC medium supplemented with 17-AAG or HSF1A. HSCs were cultured for 10 days and competitively transplanted with 2×10^5 freshly isolated congenic bone marrow cells (CD45.2^+) into irradiated mice (CD45.2^+). Recipient mice were bled monthly (for 4 months) to assess levels of donor-derived CD45.1^+ hematopoietic cells. Self-renewal capacity of HSCs was assessed by serially transplanting hematopoietic cells from the primary recipients into secondary irradiated recipients (3×10^6 cells/recipient). […] Similar results are expected for other HSP90 or TRiC inhibitors.
To test if HSP90 inhibitors or TRiC inhibitors enable HSC expansion in vitro, purified HSCs were sorted from young adult bone marrow (CD45.1^+) into 96-well plates (10/well) containing HSC medium supplemented with 17-AAG or HSF1A. HSCs were cultured for 10 days and competitively transplanted with 2×10^5 freshly isolated congenic bone marrow cells (CD45.2^+) into irradiated mice (CD45.2^+). At the same time, 10 freshly isolated HSCs were transplanted with 2×10^5 freshly isolated congenic bone marrow cells into irradiated mice. Recipient mice were bled monthly (for 4 months) to assess levels of donor-derived CD45.1^+ hematopoietic cells. Self-renewal capacity of HSCs was assessed by serially transplanting hematopoietic cells (3×10^6 cells/recipient) into secondary irradiated recipients. […] Similar results are expected for other HSP90 or TRiC inhibitors.

[3] = test system: Hsf1-deficient and control HSCs; experiment: Competitive transplantation of cultured wild-type and Hsf1-deficient HSCs; type: cell-based, mice; details: 12 weeks after transplantation
Excerpt: FIG. 17 depicts that Hsf1 is required for 17-AAG and HSF1A to enhance HSC maintenance and expansion in vitro. Donor cell engraftment 12 weeks after transplantation of 10 wild-type and Hsf1-deficient HSCs cultured for 10 days in the presence or absence of 17-AAG, HSF1A or DMSO. Cells were transplanted with 2×10^5 freshly isolated congenic bone marrow cells (n=7-9; *P<0.05, **P<0.01).
We tested whether the positive effects of 17-AAG and HSF1A on HSC maintenance/expansion in vitro were mediated by Hsf1. Purified Hsf1-deficient and control HSCs were sorted from adult bone marrow (CD45.2^+) into 96-well plates (10/well) containing HSC medium supplemented with 17-AAG, HSF1A or vehicle (DMSO). HSCs were cultured for 10 days and competitively transplanted with 2×10^5 freshly isolated congenic bone marrow cells (CD45.1^+) into irradiated mice (CD45.1^+). Recipient mice were bled monthly to assess levels of donor-derived CD45.2^+ hematopoietic cells. […] However, the positive effect of 17-AAG and HSF1A was lost with Hsf1-deficient HSCs (FIG. 17).

CD150+CD48-LSK HSCs = experiment: Frequency of CD150+CD48-LSK cells in 10-day HSC cultures; type: cell-based, mouse; details: 10 HSCs/well, 10 days culture
Protocol: FIG. 18 depicts that addition of 17-AAG to culture medium increased the frequency of CD150^+CD48^−LSK HSCs in 10-day HSC cultures as compared to controls.
To further test if HSP90 inhibitors promote HSC maintenance/expansion, we cultured purified HSCs (10/well) for 10 days in the presence or absence of 17-AAG, and assessed the frequency of CD150^+CD48^−LSK cells in culture. CD150^+CD48^−LSK cells were about ˜4-fold enriched when 17-AAG was added to the culture medium (FIG. 18). […] Similar results are expected for other HSP90 inhibitors, TRiC inhibitors and agonists of Hsf1.

HSCs [4] = experiment: Retroviral (MSCV-IRES-GFP) transduction of HSCs, GFP in colonies; type: cell-based, mouse; details: medium supplemented with 17-AAG; colonies assessed ten days after plating
Protocol: FIG. 19 depicts that addition of 17-AAG to culture medium supported highly efficient genetic modification of HSCs. The frequency of HSCs that were transduced with a GFP encoding retrovirus in culture is shown.
We tested whether the presence of HSP90 inhibitors in cell culture medium permitted efficient genetic modification of HSCs. Purified HSCs were cultured overnight in medium supplemented with 17-AAG. Retroviral supernatant (containing retrovirus encoding MSCV-IRES-GFP) was added two times (two hours apart), and the cells were cultured for an additional 24 hours. After culture, the cells were plated in methylcellulose semi-solid medium supplemented with hematopoietic cytokines. Ten days later, individual colonies (derived from single HSCs) were assessed for GFP expression by flow cytometry. […] We expect this will also be true for other HSP90 inhibitors, TRiC inhibitors and Hsf1 agonists. In addition, we expect that these agents will also be compatible for genetic modification of stem cells by other technologies (in addition to retrovirus), including but not limited to lentivirus, CRISPR and other genetic modification or editing technologies.

## C=CCNC1=C2C[C@@H](C)C[C@H](OC)[C@H](O)[C@@H](C)/C=C(\C)[C@H](OC(N)=O)[C@@H](OC)/C=C\C=C(/C)C(=O)NC(=CC1=O)C2=O [17-AAG, 17-N-Allylamino-17-demethoxygeldanamycin]
Hsf1
  Hsf1 abundance in the nucleus of cultured HSCs: increase Hsf1 abundance in the nucleus
HSCs [1]
  TMI fluorescence (unfolded protein abundance) vs vehicle (DMSO) controls: less TMI fluorescence than controls
HSCs [2]; 10 HSCs cultured 10 days vs 10 freshly isolated HSCs
  donor cell reconstitution vs recipients of freshly isolated HSCs: higher levels of donor cell reconstitution as compared to recipients of freshly isolated HSCs
HSCs [2]; 10 HSCs cultured 10 days, with 2x10^5 congenic bone marrow cells, 16 weeks
  donor cell reconstitution in primary recipients vs HSCs cultured without agent: significantly higher levels of donor cell reconstitution as compared to controls
HSCs [2]; primary and secondary transplants, 16 week, >0.5% B-, T-, myeloid cells
  fraction of recipients with long-term multilineage reconstitution vs HSCs cultured without agent: greater fraction
HSCs [2]; secondary transplants
  fraction of recipients with long-term multilineage reconstitution vs freshly isolated HSCs: significantly greater fraction
HSCs [2]; serial transplant, 3x10^6 cells/recipient
  donor cell reconstitution in secondary recipients vs HSCs cultured without agent: even more pronounced
[3]; 10 HSCs cultured 10 days
  donor cell reconstitution vs controls (DMSO), control HSCs: higher levels of donor cell reconstitution as compared to controls
[3]; Hsf1-deficient HSCs cultured 10 days
  positive effect on donor cell reconstitution with Hsf1-deficient HSCs: lost
CD150+CD48-LSK HSCs
  enrichment of CD150+CD48-LSK cells vs culture without agent: ~4 fold
HSCs [4]
  colonies in which GFP was detected: 22/25
  frequency of GFP-positive colonies (transduced HSCs): 88%
